Results reported in US5505944A, “Physiologically active substance NK175203, process for production thereof and pharmaceutical use thereof” (Nippon Kayaku Kabushiki Kaisha, priority 1992, dated 1996).

System: bone marrow cells
Assay: Bone marrow cell proliferation activity (uptake of [3H]-thymidine)
Assay type: cell-based, C57BL/6 mouse
Details: GM-CSF 100 U/ml alone, NK175203 0 μg/ml
Protocol: The femur was withdrawn from C57BL/6 mouse (10 weeks old) and the bone marrow cells were washed out in Eagle's MEM medium. After allowing to stand at 37° C. for 2 hours in 5% CO2, the supernatant was gently taken to recover the suspended cells alone. The cells were centrifuged at 1200 rpm for 5 minutes to collect the cells. After rinsing with α-MEM medium, the cells were suspended in 20% FBS-containing α-MEM medium. The thus obtained bone marrow cells were inoculated on a 96-well plate in a concentration of 7.5×10^5 cells/200 μl/well, together with the physiologically active substance NK175203 of the present invention or GM-CSF (Lantrell, M. A. et al., Proc. Natl. Acad. Sci., 8.2, 6250-6254, 1985). Incubation was then performed at 37° C. for 112 hours in 5% CO2. Finally ^3 H-thymidine of 37 KBq was added to the system. After culturing for 8 hours, uptake of ^3 H-thymidine into the cells was determined by a liquid scintillation counter.

GM-CSF: GM-CSF (Lantrell, M. A. et al., Proc. Natl. Acad. Sci.)
Uptake of [3H]-Thymidine, mean ± standard error: 33484.4 ± 2136.1
Uptake of [3H]-Thymidine, % (reference (100%) of the GM-CSF series): 100%
